Reference: ChEMBL document CHEMBL1147246, “Flavonoids from Dalbergia louvelii and their antiplasmodial activity” (J Nat Prod, 2003)
The source made the active and inactive calls. The calls are words filed in the database; no cut-off is given here.

Tested on: Plasmodium falciparum
Test: Antiplasmodial activity after 18 hrs against chloroquine-resistant Plasmodium falciparum FcB1 in human blood by [3H]hypoxanthine uptake
Format: functional, organism-based

| SMILES | Activity | IC50 [µM] |
| --- | --- | --- |
| COc1cc(-c2cc3ccc(O)cc3oc2=O)c(O)cc1O | inactive | – |
| COc1cc(O)c([C@@H]2COc3cc(O)ccc3C2=O)cc1OC | inactive | – |
| COc1cc2c(cc1O)[C@@H](C)[C@H](c1ccccc1)O2 [OBTUSAFURAN] | – | 8.7 |
| COc1cc(-c2coc3cc(O)ccc3c2=O)ccc1O | – | 6.8 |
| COC1=CC(=O)C(O)=CC12CCCc1cc(O)ccc12 (stereo not drawn) | inactive | – |
| O=C(/C=C/c1ccc(O)cc1)c1ccc(O)cc1O [ISOLIQUIRITIGENIN] | – | 7.8 |
| C=C[C@@H](C1=CC(=O)C(OC)=CC1=O)c1ccccc1 | – | 5.8 |
| COc1cc(CCCc2cccc(O)c2)c(OC)cc1O | inactive | – |
